Data published in patent publication US10806798B2, “Compound with effects of thrombolysis, free radical scavenging and thrombus-targeting” (Shanghai Lumosa Therapeutics Co., Ltd., priority 2012, dated 2020).

How the values were obtained:
Type in all cases: in vivo, SD rats
[1] = system: rats with stroke; test: Immediate treatment after stroke onset with different dosages of Ie (Zealonga scores)
Protocol: A 10% chloral hydrate solution (400 mg/kg) was injected intraperitoneally into male SD rats (250 to 300 g) for anesthesia. An incision of about 2 cm in length was longitudinally made slightly on the right to the center of the neck, and the right carotid common artery, carotid external artery and carotid internal artery were dissected along the margin of the inner side of sternocleidomastoid muscles. The open incision in the carotid internal artery and the proximal end of the common carotid artery were occluded respectively with noninvasive arterial clips. A small incision was made on the carotid external artery, and the distal end of the carotid external artery was ligated. The arterial clip at the proximal end of the carotid external artery was released, and 10 μl blood was drawn before the proximal end of the common carotid artery was again occluded with a noninvasive arterial clip. The 10 μl blood drawn was placed in a 1 mL EP vial and kept at RT for 30 min until coagulation of blood, and then transferred into a −20° C. refrigerator for 1 h to allow solid coagulation. After 1 h, the blood clots were taken out, added into 1 mL saline, and then broken into relatively uniform microthrombus by using a steel spatula. The microthrombus suspension was then transferred into a 1 mL injector until use. At the same time when the clip on the carotid internal artery of the rat was released, the 1 mL thrombus suspension in the injector was slowly injected from the carotid external artery of the rat to its proximal end, and then was injected into the brain of the rat through the carotid internal artery. Subsequently, the proximal end of the carotid external artery was ligated, the arterial clips on the carotid internal artery and the carotid common artery were released, and blood flow was restored. Injection of urokinase in normal saline (positive control group, at a dosage of 20000 IU/kg), tPA in normal saline (positive control group, at a dosage of 3 mg/kg), normal saline (blank control group, at a dosage of 3 mL/kg), or compound Ie in normal saline (at a dosage of 1 μmol/kg, 0.1 μmol/kg or 0.01 μmol/kg) was carried out. 24 h after the rats were awake, the degree of damage in neural function was evaluated by the Zealonga method. A score of 0 indicated no sign of loss in neural function, 1 indicated the front limbs on the undamaged side could not stretch out, 2 indicated walking toward the undamaged side, 3 indicated tail-chasing walking in circles toward the undamaged side, 4 indicated involuntary walking with disturbance of consciousness, and 5 indicated death. As shown in the results, in rats receiving immediate treatment after the onset of stroke with […] compound Ie, the percentage of rats with a neural function score of 0 was 60%, 30%, and 0%, respectively; and the percentage of rats with a neural function score of 1 was 20%, 30%, and 10%, respectively.

[2] = system: rats with stroke; test: Successive treatments starting 4 h after the onset of stroke (Zealonga scores)
Protocol: The efficacy was represented by neural function scores, and a lower score indicates higher efficacy. A 10% chloral hydrate solution was injected intraperitoneally into male SD rats at a dosage of 400 mg/kg body weight for anesthesia. A longitudinal incision was made at the center of the neck, and the right carotid common artery trunk was dissected (about 3 cm in length). Carotid external artery branches were each dissected and ligated at the hyoid level, and the carotid internal artery was dissected at the swollen part of the neck. The open incision in the carotid internal artery and the proximal end of the common carotid artery were occluded respectively with noninvasive arterial clips, and the distal end of the carotid external artery was ligated. A catheter containing 0.5 mL thrombus suspension in normal saline was inserted in the carotid external artery trunk. At the same time when the clip on the carotid internal artery was released, the 0.5 mL thrombus suspension in normal saline in the catheter slowly flew from the carotid external artery to its proximal end, and then was injected into the arteries in brain through the carotid internal artery. Subsequently, the proximal end of the carotid artery was ligated, the arterial clips on the carotid internal artery and the common carotid artery were released, and blood flow was restored. After the wound was stitched up, 20,000 IU penicillin was intramuscularly injected for prevention from infection. After 4 h, compound Ie in normal saline (at a dosage of 1 μmol/kg, n=1), urokinase in normal saline (at a dosage of 20000 IU/kg, n=6) or tPA in normal saline (at a dosage of 3 mg/kg, n=6) was infused through the tail vein. Infusion of compound Ie in normal saline through rat tail vein was carried out once per day for 6 consecutive days, observed for 7 days. The rats were compared to themselves each day, and evaluated for degree of damage in neural function by the Zealonga method. Alternatively, infusion of urokinase in normal saline through rat tail vein was carried out once per day for two consecutive days, the rats were compared to themselves each day, and evaluated for the degree of damage in neural function by the Zealonga method. Alternatively, infusion of tPA in normal saline through rat tail vein was carried out once per day for two consecutive days, the rats were compared to themselves each day, and evaluated for the degree of damage in neural function by the Zealonga method. A score of 0 indicated no sign of loss in neural function, 1 indicated the front limbs on the undamaged side could not stretch out, 2 indicated walking toward the undamaged side, 3 indicated tail-chasing walking in circles toward the undamaged side, 4 indicated involuntary walking with disturbance of consciousness, and 5 indicated death.

[3] = system: rats with stroke; test: Successive treatments with 1 μmol/kg Ie starting 6 h after the onset of stroke (Zealonga scores)
Protocol: The efficacy was represented by neural function scores, and a lower score indicates higher efficacy. A 10% chloral hydrate solution was injected intraperitoneally into male SD rats at a dosage of 400 mg/kg body weight for anesthesia. A longitudinal open incision was made at the center of the neck, and the right common carotid artery trunk was dissected (about 3 cm in length). Carotid external artery branches were each dissected and ligated at the hyoid level, and the carotid internal artery was dissected at the swollen part of the neck. The open incision in the carotid internal artery and the proximal end of the common carotid artery were occluded respectively with noninvasive arterial clips, and the distal end of the carotid external artery was ligated. A catheter containing 0.5 mL thrombus suspension in normal saline was inserted in the carotid external artery trunk. At the same time when the clip on the carotid internal artery was released, the 0.5 mL thrombus suspension in normal saline in the catheter slowly flew from the carotid external artery to its proximal end, and then was injected into the arteries in brain through the carotid internal artery. Subsequently, the proximal end of the carotid artery was ligated, the arterial clips on the carotid internal artery and the common carotid artery were released, and blood flow was restored. After the wound was stitched up, 20,000 IU penicillin was intramuscularly injected for prevention from infection. After 6 h, compound Ie in normal saline (at a dosage of 1 μmol/kg, n=11), urokinase in normal saline (at a dosage of 20000 IU/kg, n=6) or tPA in normal saline (at a dosage of 3 mg/kg, n=6) was infused through the tail vein. Infusion of compound Ie in normal saline through rat tail vein was carried out once per day for 6 consecutive days, observed for 7 days. The rats were compared to themselves each day, and evaluated for the degree of damage in neural function by the Zealonga method. Alternatively, infusion of urokinase in normal saline through rat tail vein was carried out once per day for two consecutive days, the rats were compared to themselves each day, and evaluated for the degree of damage in neural function by the Zealonga method. Alternatively, infusion of tPA in normal saline through rat tail vein was carried out once per day for two consecutive days, the rats were compared to themselves each day, and evaluated for the degree of damage in neural function by the Zealonga method. A score of 0 indicated no sign of loss in neural function, 1 indicated the front limbs on the undamaged side could not stretch out, 2 indicated walking toward the undamaged side, 3 indicated tail-chasing walking in circles toward the undamaged side, 4 indicated involuntary walking with disturbance of consciousness, and 5 indicated death.

[4] = Day 1, tPA 3 mg/kg once per day from 4 h after stroke onset, n=6
[5] = Day 2, tPA 3 mg/kg once per day from 4 h after stroke onset, n=6
[6] = Day 1, tPA 3 mg/kg once per day from 6 h after stroke onset, n=6
[7] = Day 2, tPA 3 mg/kg once per day from 6 h after stroke onset, n=6

tPA: tissue-type plasminogen activator, positive control
percentage of rats with a neural function score of 0 ([1]; 3 mg/kg tPA): 40% | percentage of rats with a neural function score of 1 ([1]; 3 mg/kg tPA): 10% | number of rats scored Score 0 ([1]; tPA 3 mg/kg, n = 10): 4 | number of rats scored Score 1 ([1]; tPA 3 mg/kg, n = 10): 1 | number of rats scored Score 2 ([1]; tPA 3 mg/kg, n = 10): 1 | number of rats scored Score 3 ([1]; tPA 3 mg/kg, n = 10): 3 | number of rats scored Score 4 ([1]; tPA 3 mg/kg, n = 10): 1 | number of rats scored Score 5 ([1]; tPA 3 mg/kg, n = 10): 0 | number of rats scored Score 1 [2, 4]: 2 rats | number of rats scored Score 2 [2, 4]: 3 rats | number of rats scored Score 3 [2, 4]: 1 rat rats | number of rats scored Score 0 [2, 5]: 2 rats | number of rats scored Score 1 [2, 5]: 2 rats | number of rats scored Score 2 [2, 5]: 1 rat^ rats | rats recovered to have only the sign of slight loss in neural function ([2]; after two doses, tPA 3 mg/kg each day from 4 h after stroke onset, 6 rats): 2 rats | rats died ([2]; out of 6 rats, within 24 h, tPA 3 mg/kg each day from 4 h after stroke onset): 1 | autopsy on the dead rat ([2]; tPA 3 mg/kg each day from 4 h after stroke onset): hemorrhage in internal organs, particularly severe hemorrhage in lungs | number of rats scored Score 0 [3, 6]: 1 rat^ rats | number of rats scored Score 1 [3, 6]: 1 rat rats | number of rats scored Score 2 [3, 6]: 1 rat rats | number of rats scored Score 3 [3, 6]: 1 rat rats | number of rats scored Score 4 [3, 6]: 2 rats | number of rats scored Score 0 [3, 7]: 2 rats | number of rats scored Score 2 [3, 7]: 1 rat rats | number of rats scored Score 3 [3, 7]: 1 rat rats | rats recovered to have only the sign of slight loss in neural function ([3]; after two doses, tPA 3 mg/kg each day from 6 h after stroke onset, 6 rats): 2 rats | rats died ([3]; out of 6 rats, within 24 h, tPA 3 mg/kg each day from 6 h after stroke onset): 2 | autopsy on the dead rats ([3]; tPA 3 mg/kg each day from 6 h after stroke onset): hemorrhage in internal organs, particularly severe hemorrhage in lungs
